The source of these data is patent US4467086A, “Cephalosporin antibiotic” (Glaxo Group Limited, priority 1979, dated 1984).

The nature of series [1]: storage stability of the solid. Type of series: physicochemical.
Series [2] in a line: early clinical results. The class given is in vivo, human.
For series [3], the system named is Pseudomonas organisms. As to the kind of experiment: antibacterial activity, Pseudomonas. The class given is cell-based. As to conditions: organisms normally difficult to combat with β-lactam antibiotics.
The subject of series [4] is gram-negative organisms, including many β-lactamase-producing gram-negative strains. As to conditions: as described in UK Patent Specification No. 2025398, cited from earlier work.
Series [5] relates to gram-negative bacteria. As to the kind of experiment: experimental infections in mice with gram-negative bacteria. Type of series: in vivo.
Series [6] relates to indolepositive Proteus. The experiment in a line: antibacterial activity, indole-positive Proteus. Type of series: cell-based. As to conditions: organisms normally difficult to combat with β-lactam antibiotics.
Series [7] is described as follows: pharmacokinetics in human volunteers. Type of series: in vivo.
The subject of series [8] is bacteria. As to the kind of experiment: antibacterial properties: human serum effect, inoculum effect, bactericidal action. Type of series: cell-based.
For series [9] the following is noted: in vivo.
Series [10] relates to Providence. As to the kind of experiment: antibacterial activity, Providence. Type of series: cell-based. As to conditions: organisms normally difficult to combat with β-lactam antibiotics.
In series [11] the test system is Serratia. As to the kind of experiment: antibacterial activity, Serratia. The class given is cell-based. As to conditions: organisms normally difficult to combat with β-lactam antibiotics.
Series [12] concerns Pseudomonas aeruginosa. As to the kind of experiment: experimental infections in mice with Pseudomonas aeruginosa. Type of series: in vivo.

Counter-ions that a name gives are not always drawn.

Take `CC(C)(O/N=C(\C(=O)N[C@@H]1C(=O)N2C(C(=O)[O-])=C(C[n+]3ccccc3)CS[C@H]12)c1csc(N)n1)C(=O)O` [ceftazidime, (6R,7R)-7-[(Z)-2-(2-aminothiazol-4-yl)-2-(2-carboxyprop-2-oxyimino)acetamido]-3-(1-pyridiniummethyl)ceph-3-em-4-carboxylate]: the stability entry in series [1] (amorphous solid, especially at elevated temperatures) was “not particularly satisfactory”. The clinical antibiotic properties result in series [2] is given as “reproduces in the clinic the excellent antibiotic properties”. Also, the “activity against Pseudomonas” value in [3] is given as “excellent activity”. Also, in series [4], the antibiotic activity spectrum result is “broad spectrum antibiotic activity”. In addition, in series [4] (including many β-lactamase-producing gram-negative strains), the “activity against gram-negative organisms” value was “unusually high activity”. In series [5], the “treatment of experimental infections” value is “successfully treated”. Further, in [6], the “activity against indole-positive Proteus” value was “excellent activity”. The “serum levels after injection” value in series [7] was “high and long lasting”. Moreover, the “effect of human serum on antibacterial properties” value in series [8] is “not impaired”. The “distribution in the body” value in [9] is “well distributed”. For the same compound, in [10], the “activity against Providence” value is recorded as “excellent activity”. For the same compound, in series [11], the “activity against Serratia” value is “excellent activity”. Also, the “protection against Pseudomonas aeruginosa infection” value in series [12] was “excellent protection”. Also, the “protection compared with aminoglycoside treatment” value in series [12] (versus an aminoglycoside such as amikacin) is “comparable”.
As to `CC(C)(O/N=C(\C(=O)N[C@@H]1C(=O)N2C(C(=O)[O-])=C(C[n+]3ccccc3)CS[C@H]12)c1csc(N)n1)C(=O)O` [(6R,7R)-7-[(Z)-2-(2-aminothiazol-4-yl)-2-(2-carboxyprop-2-oxyimino)acetamido]-3-(1-pyridiniummethyl)ceph-3-em-4-carboxylate bishydrochloride], in series [1] (crystalline form, stored for an extended period at a temperature of 50° C.), the stability entry is on record as “remarkably stable”.
